Experimental data as given in PubChem BioAssay AID248 (DTP/NCI, 2004).
Inconclusive results and toxic doses are left out. Rule as the data show it: active = T/C of 150% or more; inactive = T/C below 125%.

Test system: L1210 leukemia ip in BDF1 mice, survival T/C
Test: NCI In Vivo Anticancer Drug Screen. Data for tumor model L1210 Leukemia (intraperitoneal) in B6D2F1 (BDF1) mice
Conditions: endpoint: mean survival time, higher = longer survival
Outline: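 Value reflects the ratio of survival in compound-treated mice to survival in vehicle-treated controls, with both groups carrying the same transplanted tumor.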

[1] = dose: 100.0 mg/kg/injection, schedule: Q01DX009 (ip), vehicle: saline with Tween-80
[2] = dose: 100.0 mg/kg/injection, schedule: Q04DX003 (ip), vehicle: saline with Tween-80
[3] = dose: 200.0 mg/kg/injection, schedule: Q04DX003 (ip), vehicle: saline with Tween-80
[4] = dose: 400.0 mg/kg/injection, schedule: Q04DX003 (ip), vehicle: saline with Tween-80
[5] = dose: 100.0 mg/kg/injection, schedule: Q01DX009 (ip), vehicle: Klucel (hydroxypropylcellulose) (HPC)
[6] = dose: 100.0 mg/kg/injection, schedule: Q04DX003 (ip), vehicle: Klucel (hydroxypropylcellulose) (HPC)
[7] = dose: 200.0 mg/kg/injection, schedule: Q01DX009 (ip), vehicle: Klucel (hydroxypropylcellulose) (HPC)
[8] = dose: 200.0 mg/kg/injection, schedule: Q04DX003 (ip), vehicle: Klucel (hydroxypropylcellulose) (HPC)
[9] = dose: 100.0 mg/kg/injection, schedule: Q01DX001 (ip), vehicle: Klucel (hydroxypropylcellulose) (HPC)
[10] = dose: 200.0 mg/kg/injection, schedule: Q01DX001 (ip), vehicle: Klucel (hydroxypropylcellulose) (HPC)
[11] = dose: 400.0 mg/kg/injection, schedule: Q01DX001 (ip), vehicle: Klucel (hydroxypropylcellulose) (HPC)
[12] = dose: 100.0 mg/kg/injection, schedule: Q01DX001 (ip), vehicle: saline
[13] = dose: 200.0 mg/kg/injection, schedule: Q01DX001 (ip), vehicle: saline
[14] = dose: 400.0 mg/kg/injection, schedule: Q01DX001 (ip), vehicle: saline

Measured: T/C

COC1/C=C/O[C@@]2(C)Oc3c(C)c(O)c4c(O)c(cc(O)c4c3C2=O)NC(=O)/C(C)=C\C=C\[C@H](C)C(O)[C@@H](C)[C@@H](O)[C@@H](C)[C@H](OC(C)=O)[C@@H]1C (stereo partly drawn)
inactive: dose: 4.0 mg/kg/injection, schedule: Q03HX040 (ip), vehicle: saline 101 % of control | dose: 8.0 mg/kg/injection, schedule: Q03HX040 (ip), vehicle: saline 103 % of control | dose: 16.0 mg/kg/injection, schedule: Q03HX040 (ip), vehicle: saline 97 % of control | [1] 104 % of control | [2] 95 % of control | dose: 119.0 mg/kg/injection, schedule: Q01DX009 (ip), vehicle: saline 98 % of control | dose: 128.0 mg/kg/injection, schedule: Q03HX024 (ip), vehicle: saline 92 % of control | dose: 128.0 mg/kg/injection, schedule: Q03HX040 (ip), vehicle: saline 89 % of control | dose: 178.0 mg/kg/injection, schedule: Q01DX009 (ip), vehicle: saline 96 % of control | dose: 200.0 mg/kg/injection, schedule: Q01DX009 (ip), vehicle: saline with Tween-80 92 % of control | [3] 87 % of control | dose: 256.0 mg/kg/injection, schedule: Q03HX024 (ip), vehicle: saline 93 % of control | dose: 267.0 mg/kg/injection, schedule: Q01DX009 (ip), vehicle: saline 98 % of control | dose: 400.0 mg/kg/injection, schedule: Q01DX009 (ip), vehicle: saline with Tween-80 97 % of control | dose: 400.0 mg/kg/injection, schedule: Q01DX009 (ip), vehicle: saline 104 % of control | [4] 101 % of control | dose: 512.0 mg/kg/injection, schedule: Q03HX024 (ip), vehicle: saline 92 % of control | dose: 512.0 mg/kg/injection, schedule: Q03HX040 (ip), vehicle: saline 88 % of control | dose: 1024.0 mg/kg/injection, schedule: Q03HX024 (ip), vehicle: saline 98 % of control

Cc1ccc(CCO)c(C)c1
inactive: [5] 92 % of control | [6] 92 % of control | [7] 94 % of control | [8] 92 % of control | dose: 400.0 mg/kg/injection, schedule: Q01DX009 (ip), vehicle: Klucel (hydroxypropylcellulose) (HPC) 90 % of control | dose: 400.0 mg/kg/injection, schedule: Q04DX003 (ip), vehicle: Klucel (hydroxypropylcellulose) (HPC) 103 % of control

CC1=C/C(=N/N(C)C)CC(C)C1 (stereo not drawn)
inactive: dose: 12.5 mg/kg/injection, schedule: Q01DX009 (ip), vehicle: saline 96 % of control | dose: 25.0 mg/kg/injection, schedule: Q01DX009 (ip), vehicle: saline 102 % of control | dose: 50.0 mg/kg/injection, schedule: Q01DX009 (ip), vehicle: saline 95 % of control | dose: 100.0 mg/kg/injection, schedule: Q04DX003 (ip), vehicle: saline 100 % of control | dose: 200.0 mg/kg/injection, schedule: Q04DX003 (ip), vehicle: saline 109 % of control | dose: 400.0 mg/kg/injection, schedule: Q04DX003 (ip), vehicle: saline 112 % of control

CCCCCCCCCCCCCC(S(=O)(=O)CC)S(=O)(=O)CC
inactive: [9] 89 % of control | [10] 87 % of control | [11] 87 % of control

CC(Cc1ccccc1)Nc1ccccc1 (stereo not drawn)
inactive: dose: 50.0 mg/kg/injection, schedule: Q01DX001 (ip), vehicle: saline 93 % of control | [12] 100 % of control | [13] 93 % of control | [14] 93 % of control

COC(=O)C1OC1c1ccccc1OC (stereo not drawn)
inactive: [12] 105 % of control | [13] 102 % of control | [14] 109 % of control

CCC1=NS(=O)(=O)c2c(ncn2C)N1
inactive: dose: 100.0 mg/kg/injection, schedule: Q04DX003 (ip), vehicle: other 97 % of control | dose: 200.0 mg/kg/injection, schedule: Q04DX003 (ip), vehicle: other 97 % of control | dose: 400.0 mg/kg/injection, schedule: Q04DX003 (ip), vehicle: other 103 % of control

CC1=[N+]([O-])[N+]([O-])=C(c2ccccc2)C1=O
inactive: dose: 100.0 mg/kg/injection, schedule: Q04DX002 (ip), vehicle: Klucel (hydroxypropylcellulose) (HPC) 100 % of control | dose: 200.0 mg/kg/injection, schedule: Q04DX002 (ip), vehicle: Klucel (hydroxypropylcellulose) (HPC) 95 % of control | dose: 400.0 mg/kg/injection, schedule: Q04DX002 (ip), vehicle: Klucel (hydroxypropylcellulose) (HPC) 87 % of control

O=[N+]([O-])c1cc(C(F)(F)F)ccc1Oc1ccccc1
inactive: [2] 95 % of control | [3] 110 % of control | [4] 101 % of control

CC1C(=O)CC(c2ccccc2)N(C)C1c1ccccc1 (stereo not drawn)
inactive: dose: 75.0 mg/kg/injection, schedule: Q01DX001 (ip), vehicle: saline 96 % of control | dose: 75.0 mg/kg/injection, schedule: Q04DX003 (ip), vehicle: acetone 93 % of control | dose: 150.0 mg/kg/injection, schedule: Q01DX001 (ip), vehicle: saline 91 % of control | dose: 150.0 mg/kg/injection, schedule: Q04DX003 (ip), vehicle: acetone 98 % of control | dose: 300.0 mg/kg/injection, schedule: Q01DX001 (ip), vehicle: saline 100 % of control | dose: 300.0 mg/kg/injection, schedule: Q04DX003 (ip), vehicle: acetone 96 % of control

Nc1ccc(Nc2ccncc2)cc1
inactive: dose: 50.0 mg/kg/injection, schedule: Q01DX009 (ip), vehicle: Klucel (hydroxypropylcellulose) (HPC) 98 % of control | [5] 97 % of control | [6] 93 % of control | [7] 98 % of control | [8] 95 % of control

C/C(=N/NC(=O)c1ccccc1)C(=O)c1ccccc1
inactive: [9] 101 % of control | [10] 97 % of control | [11] 98 % of control

O=C1C(Cl)=C(Nc2ccc3cn[nH]c3c2)C(=O)c2ccccc21
inactive: dose: 50.0 mg/kg/injection, schedule: Q01DX001 (ip), vehicle: carboxymethylcellulose (CMC) 102 % of control | dose: 100.0 mg/kg/injection, schedule: Q01DX001 (ip), vehicle: carboxymethylcellulose (CMC) 100 % of control | dose: 200.0 mg/kg/injection, schedule: Q01DX001 (ip), vehicle: carboxymethylcellulose (CMC) 102 % of control

c1ccc(C[n+]2ccc(-c3cc[n+](Cc4ccccc4)cc3)cc2)cc1
inactive: dose: 5.0 mg/kg/injection, schedule: Q01DX001 (ip), vehicle: saline 109 % of control

O=C1CCC(N2C(=O)C3C4CCC(CC4)C3C2=O)C(=O)N1 (stereo not drawn)
inactive: [2] 104 % of control | [3] 96 % of control | [4] 100 % of control

O=C(NCCBr)Nc1ccc([N+](=O)[O-])cc1
inactive: dose: 50.0 mg/kg/injection, schedule: Q01DX009 (ip), vehicle: saline with Tween-80 90 % of control | [1] 87 % of control
